Reference: PubChem BioAssay (NCI)
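Step 1: Grow cells in 96-well plates. Step 2: Expose to compound for 48 hours at 5 concentrations. Step 3: Interpolate endpoints linearly; if unreached, use highest concentration. TGI: total growth inhibition.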

How the values were obtained:
Experiment in all cases: inhibition of tumour cell growth, NCI panel, 48 h
[1] = system: BT-549 breast
[2] = system: CAKI-1 renal
[3] = system: HCT-15 colon
[4] = system: IGROV1 ovarian
[5] = system: M14 melanoma
[6] = system: MDA-N
[7] = system: OVCAR-3 ovarian
[8] = system: OVCAR-8 ovarian
[9] = system: TK-10 renal

Row | Structure (SMILES) | TGI [1] | TGI [2] | TGI [3] | TGI [4] | TGI [5] | TGI [6] | TGI [7] | TGI [8] | TGI [9]
1 | COc1cc2c(/C=C3/C(=O)Nc4ccccc43)c(Cl)[nH]c2cc1C | 17.1 µM | 23.6 µM | 11 µM | 1.1 µM | 17 µM | 0.0396 µM | > 39.9 µM | 12.6 µM | 21.7 µM
2 | Cc1cn([C@@H]2C[C@H]2CO)c(=O)[nH]c1=O | > 100 µM | > 100 µM | > 100 µM | > 100 µM | > 100 µM | > 100 µM |  | > 100 µM | > 100 µM
3 | COc1ccc2c(c1)CN1C(=N2)CSC1c1ccccc1Cl (stereo not drawn) | 80.3 µM | > 100 µM | 38.9 µM | 42.2 µM | 35.4 µM | 36.1 µM |  | 43.2 µM | 68 µM
4 | N#Cc1cc2c(cc1Cl)Sc1nccn1S2(=O)=O | 13 µM | 3.6 µM | 3.28 µM | 13.6 µM | 4.02 µM |  | 2.13 µM | 8.9 µM | 28 µM
5 | COC(=O)C1=Nc2c(C)nn(-c3ccccc3)c2N=C(c2ccc([N+](=O)[O-])cc2)C1 | > 10 µM | > 10 µM | > 10 µM | > 10 µM | > 10 µM | > 10 µM | > 10 µM | > 10 µM | > 10 µM
6 | O=C(Cc1ccc([N+](=O)[O-])cc1)OCC#CCOC(=O)Cc1ccc([N+](=O)[O-])cc1 | > 10 µM |  | > 10 µM | > 10 µM | > 10 µM | > 10 µM | > 10 µM | > 10 µM | > 10 µM
7 | Cn1c2ccccc2n2c(=O)c3cc([N+](=O)[O-])ccc3c(C#N)c12 | > 100 µM |  | > 100 µM | > 100 µM | > 100 µM | > 100 µM | > 100 µM | > 100 µM | > 100 µM
8 | CC1(CNCc2ccccc2)CC(CCc2ccccc2)N(C(=O)c2ccc([N+](=O)[O-])cc2)C1Cc1ccc(O)cc1 (stereo not drawn) | 31.3 µM | 28.1 µM | 26.3 µM | 31.2 µM | 28 µM | 27.1 µM | 24.6 µM | 32 µM | 30.9 µM
9 | COc1cc(CN2CCCCC2)cc2cc(C(=O)O)c(=O)oc12 | > 100 µM | > 100 µM | > 100 µM | > 100 µM | > 100 µM | > 100 µM | > 100 µM | > 100 µM | > 100 µM
10 | COC(=O)Cc1c([C@H]2[C@H](CC(=O)OC)c3ccccc3N2C(C)=O)[nH]c2ccccc12 | > 100 µM | > 100 µM | > 100 µM | > 100 µM | > 100 µM | > 100 µM | > 100 µM | > 100 µM | > 100 µM
11 | COc1cc(/C=C\C(=O)O)ccc1OCc1ccccc1 |  | > 100 µM | > 100 µM | > 100 µM | > 100 µM | > 100 µM | > 100 µM | > 100 µM | > 100 µM
